Reference: patent US11066399B2, “Ferroportin inhibitors” (Vifor (International) AG, priority 2015, dated 2021)

What was measured:
human Fpn = target: T1, human Fpn (Homo sapiens, UniProt Q9NP59); test: Biophysical Ferroportin-Hepcidin Binding Assay (fluorescence polarization); details: average (AVE) of multiple measurements; TMR-hepcidin binding to purified human Fpn; read-out: FP IC50
T1 construct: FLAG (C); made in house; host or cells: Pichia pastoris
T1 sequence (Q9NP59 1-571): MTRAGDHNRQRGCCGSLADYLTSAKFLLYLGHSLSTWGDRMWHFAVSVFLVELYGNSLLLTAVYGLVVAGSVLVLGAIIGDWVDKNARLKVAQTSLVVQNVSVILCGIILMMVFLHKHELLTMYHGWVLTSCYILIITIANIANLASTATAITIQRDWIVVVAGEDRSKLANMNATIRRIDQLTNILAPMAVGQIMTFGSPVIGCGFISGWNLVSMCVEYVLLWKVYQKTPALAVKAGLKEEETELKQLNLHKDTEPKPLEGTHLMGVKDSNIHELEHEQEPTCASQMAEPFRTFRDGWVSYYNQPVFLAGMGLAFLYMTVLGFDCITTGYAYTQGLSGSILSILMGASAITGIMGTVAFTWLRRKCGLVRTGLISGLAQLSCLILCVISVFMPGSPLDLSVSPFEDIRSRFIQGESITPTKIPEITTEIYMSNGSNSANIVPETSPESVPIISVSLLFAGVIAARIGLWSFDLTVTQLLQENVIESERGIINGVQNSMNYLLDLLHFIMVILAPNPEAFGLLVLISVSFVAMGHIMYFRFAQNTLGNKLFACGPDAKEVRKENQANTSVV
Procedure: This biophysical assay was developed to confirm inhibition of hepcidin binding to ferroportin (Fpn) more directly. Incubation of TMR-hepcidin with purified human Fpn isolated from Pichia pastoris yeast cells expressing human Fpn with a C-terminal FLAG affinity tag (Bonaccorsi di Patti, 2014) leads to increased fluorescence polarization (FP) of the TMR-hepcidin ligand. Small molecular weight Fpn inhibitors were tested for inhibition of binding of TMR-hepcidin to Fpn, as detected by dose-dependent decrease of the TMR FP signal, as described in detail below.
A mixture of […] human Fpn and 30 nM TMR-hepcidin in FP assay buffer containing 50 mM Tris-HCl pH 7.3, 200 mM NaCl, 0.02% DDM, 0.1% BSA was plated into a 384 well black low volume round bottom plate (Corning, Cat. 3677) at 16 μl per well. 8 μl of serial dilutions of test compounds were added in duplicates to reach final Fpn and TMR-hepcidin concentrations of […] and 20 nM, respectively. Plates were incubated for 90 minutes at room temperature and parallel (S) and perpendicular (P) fluorescence was measured in a Synergy H1 fluorescence reader (BioTek). FP values were calculated in mP according to the following formula.

ferroportin (Fpn) = target: T2, ferroportin (Fpn) (Mus musculus, UniProt Q9JHI9); test: Hepcidin Internalization Assay (J774); type: cell-based; details: average (AVE) of multiple measurements; TMR-hepcidin 25 nM, J774 cells
T2 construct: host or cells: J774 mouse macrophage cell line, Fe(III)-NTA induced
T2 sequence (Q9JHI9 1-570): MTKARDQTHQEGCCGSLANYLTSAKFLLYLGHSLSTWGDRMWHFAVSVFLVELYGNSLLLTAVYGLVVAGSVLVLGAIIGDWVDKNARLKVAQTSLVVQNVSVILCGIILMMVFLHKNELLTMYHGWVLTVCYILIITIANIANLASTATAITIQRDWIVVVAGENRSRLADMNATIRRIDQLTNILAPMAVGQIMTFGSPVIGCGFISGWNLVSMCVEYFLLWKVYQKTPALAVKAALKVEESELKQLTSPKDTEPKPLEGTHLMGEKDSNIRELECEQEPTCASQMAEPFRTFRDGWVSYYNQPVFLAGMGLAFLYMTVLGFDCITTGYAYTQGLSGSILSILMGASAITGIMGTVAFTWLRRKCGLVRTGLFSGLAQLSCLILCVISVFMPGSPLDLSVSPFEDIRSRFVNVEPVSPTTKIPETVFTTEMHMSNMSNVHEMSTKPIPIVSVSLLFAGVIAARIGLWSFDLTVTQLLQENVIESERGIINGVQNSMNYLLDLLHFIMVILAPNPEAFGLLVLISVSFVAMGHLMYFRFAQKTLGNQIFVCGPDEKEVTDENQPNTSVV
Description: This cellular assay allows quantification of the binding of hepcidin to ferroportin (Fpn) through microscopic detection of internalization of a fluorescently labeled hepcidin into J774 cells. […] Binding of hepcidin to Fpn triggers internalization and degradation of both hepcidin and Fpn. However, the TMR (6-carboxytetramethylrhodamine) fluorophore attached to hepcidin remains associated with the cell after degradation of the hepcidin peptide backbone. Therefore, microscopic detection of cell-associated TMR fluorescence is a measure of hepcidin binding to Fpn and internalization of hepcidin and Fpn. If TMR-hepcidin is prevented from binding to Fpn, cellular TMR fluorescence remains low (Dürrenberger et al, 2013). The effect of small molecular weight Fpn inhibitor compounds in this assay was evaluated in vitro as described below.
After overnight incubation, cells were washed 3 times with pre-warmed DMEM w/o phenol red, 30 μl/well of DMEM w/o phenol red was added after the final wash and 10 μl/well of dilution series of test compounds were added in triplicates. […] Cells were incubated in a total volume of 50 μl at 37° C. with 5% CO2 for 2 hours, then Hoechst 33342 dye was added to a final concentration of 0.5 μg/ml to stain nuclei and further incubated for 10 min. at 37° C. with 5% CO2. Cells were washed 3 times with PBS and fixed in 100 μl of 4% paraformaldehyde in PBS for 15 min. at room temperature. After removal of the paraformaldehyde solution, cells were washed 3 times with PBS leaving 100 μl per well and the plates were sealed with foil plate seal. TMR (530-550 nm excitation/575-625 nm emission/400 ms exposure time) and Hoechst 33342 (360-370 nm excitation/420-460 nm emission/10 ms exposure time) fluorescence images were acquired using a ScanR plate imager (Olympus) with a 20× high NA objective. Four pictures were acquired per well and fluorescence channel covering ca. 1500 cells per well. The acquired image data was analysed with the ScanR image analysis software. Image analysis included detection of nuclei (Hoechst 33342 fluorescence), identification of cell-associated regions, application of a virtual channel and thresholding for rolling-ball-type background reduction, followed by application of the Sum(Mean) algorithm to measure the TMR fluorescence associated with cells as a quantitative measure for internalized TMR-hepcidin. IC50 values were calculated with the Sum(Mean) raw data using “log(inhibitor) vs. response” curve fitting of Prism 5 software (GraphPad Software Inc., version 5.02).

Row | Structure (SMILES) | IC50 (human Fpn) [µM] | IC50 (ferroportin (Fpn)) [µM]
1 | O=C(NCc1ncccc1F)c1cnc(C2CN(CCc3nc4ccccc4[nH]3)C2)o1 [Example 2] | 0.017 | 0.035
2 | O=C(NCc1ncccc1F)c1cnn(CCNCCc2cc3ccccc3[nH]2)c1 [Example 277] | – | 0.011
3 | O=C(NCc1ncccc1F)c1cnc(CCNCCc2nc3ccccc3[nH]2)o1 [Example 1] | 0.016 | 0.012
4 | O=C(NCc1ncccc1F)c1csc(CCNCc2nc3ccccc3[nH]2)n1 [Example 40] | 0.068 | 0.049
